Results reported in US20080241177A1 (priority 2003, published 2008).
“Also recorded” adds a separate entry of the source.

How the values were obtained:
[1] = Delayed type hypersensitivity (DTH) testing; assay type: in vivo, human; conditions: for Induration area, DTH testing: 48 hours following intradermal injection of individual peptide, after four vaccinations; for Number of patients with a peptide-specific DTH response: six trial patients who underwent DTH testing
Method: Delayed type hypersensitivity (DTH) testing was carried out 1 month after the final vaccination. […] Induration of […]10 mm^2 at 48 hours after injection was considered positive.

serum antibodies [2] = experiment: ELISA for serum antibodies specific for the individual vaccine peptides, human sera; conditions: for Number of individuals with a humoral response to the vaccine peptides, Cancer controls n = 54 / Percent of individuals with a humoral response to the vaccine peptides, Cancer controls n = 54: non-trial cancer controls, sera 1:25 dilution; for Number of individuals with a humoral response to the vaccine peptides, Trial subjects n = 6 / Percent of individuals with a humoral response to the vaccine peptides, Trial subjects n = 6: trial subjects who completed four vaccinations, detectable response at any time point considered positive
serum antibodies [3] = experiment: Immunization of sheep with the vaccine, anti-peptide ELISA; conditions: for Response higher in the first immunized sheep, on average: first versus second sheep; for Response to peptide using the polyclonal sheep sera or rabbit sera: polyclonal sheep sera (FIG. 2A) or rabbit sera (data not shown); for Polyclonal sera with reactivity to peptide obtained from immunized sheep: 200 μg peptide mixture in CpG DNA adjuvant, prime and boost
[4] = normal controls, n = 30, not vaccinated

Substance | Induration area, DTH testing ([1]; patient 012) | Induration area, DTH testing ([1]; patient 014) | Induration area, DTH testing ([1]; patient 015) | Induration area, DTH testing ([1]; patient 016) | Induration area, DTH testing ([1]; patient 017) | Induration area, DTH testing ([1]; patient 018) | Number of patients with a peptide-specific DTH response [1] | Number of individuals with a humoral response to the vaccine peptides, Cancer controls n = 54 (serum antibodies [2]) | Number of individuals with a humoral response to the vaccine peptides, Normal controls n = 30 (serum antibodies [2]; [4]) | Number of individuals with a humoral response to the vaccine peptides, Trial subjects n = 6 (serum antibodies [2]) | Response higher in the first immunized sheep, on average (serum antibodies [3]) [%] | Response to peptide using the polyclonal sheep sera or rabbit sera (serum antibodies [3]) | Polyclonal sera with reactivity to peptide obtained from immunized sheep (serum antibodies [3]; two sheep) | also measured
H-AGLFCQQYYTTPLTFGGGT-OH [Peptide 4] | Neg (Neg indicates that induration (if any) was less than 10 mm^2) | Neg (Neg indicates that induration (if any) was less than 10 mm^2) | 13 mm^2 | Neg (Neg indicates that induration (if any) was less than 10 mm^2) | Neg (Neg indicates that induration (if any) was less than 10 mm^2) | Neg (Neg indicates that induration (if any) was less than 10 mm^2) | one | 0 | 0 | 0 | 50 | positive responses | obtained from both sheep | Number of individuals with a humoral response to the vaccine peptides, Trial subjects n = 6 (serum antibodies [2]; listed as peptide 4): No patient demonstrated a response
H-AVYYCLLQALKHWGQGT-OH [Peptide 2] | 189 mm^2 | 20 mm^2 | 86 mm^2 | Neg (Neg indicates that induration (if any) was less than 10 mm^2) | 71 mm^2 | 38 mm^2 | five | 1 | 0 | 4 | 50 | – | obtained from both sheep | Percent of individuals with a humoral response to the vaccine peptides, Cancer controls n = 54 (serum antibodies [2]): 1.9%; Isotype of peptide-specific serum antibodies (serum antibodies [2]; subject 012): IgG1; Isotype of peptide-specific serum antibodies (serum antibodies [2]; subject 014): IgG1 and IgG3; Isotype of peptide-specific serum antibodies (serum antibodies [2]; subject 015): IgG1 and IgG3; Isotype of peptide-specific serum antibodies (serum antibodies [2]; subject 016): IgG4; Percent of individuals with a humoral response to the vaccine peptides, Trial subjects n = 6 (serum antibodies [2]): 66.7%; Number of individuals with a humoral response to the vaccine peptides, Trial subjects n = 6 (serum antibodies [2]; listed as peptide 2): four of the six
H-GVYYCMQGLQTPYTFGEGT -OH (H-GVYYCMQGLQTPYTFGEGT-OH) [Peptide 8] | 113 mm^2 | Neg (Neg indicates that induration (if any) was less than 10 mm^2) | 38 mm^2 | Neg (Neg indicates that induration (if any) was less than 10 mm^2) | 44 mm^2 | Neg (Neg indicates that induration (if any) was less than 10 mm^2) | three | 0 | 0 | 2 | – | – | obtained from both sheep | Isotype of peptide-specific serum antibodies (serum antibodies [2]; subject 012): undetectable; Isotype of peptide-specific serum antibodies (serum antibodies [2]; subject 015): undetectable; Percent of individuals with a humoral response to the vaccine peptides, Trial subjects n = 6 (serum antibodies [2]): 33.3%; Number of individuals with a humoral response to the vaccine peptides, Trial subjects n = 6 (serum antibodies [2]; listed as peptide 8): two; Serum antibody titres, first versus second immunized sheep (serum antibodies [3]; two sheep): equivalent
H-KLLIHWASTRESGVPDR-OH [Peptide 3] | – | – | – | – | – | – | responses were observed in at least one individual for all of the peptides, except for peptides 3 and 6 | 0 | 1 | 0 | – | positive responses | neither animal; also recorded: could not be generated | Percent of individuals with a humoral response to the vaccine peptides, Normal controls n = 30 (serum antibodies [2]; [4]): 3.3%; Number of individuals with a humoral response to the vaccine peptides, Trial subjects n = 6 (serum antibodies [2]; listed as peptide 3): No patient demonstrated a response
H-LLIYLGSTRASGVPDR-OH [Peptide 7] | 16 mm^2 | Neg (Neg indicates that induration (if any) was less than 10 mm^2) | Neg (Neg indicates that induration (if any) was less than 10 mm^2) | 39 mm^2 | Neg (Neg indicates that induration (if any) was less than 10 mm^2) | Neg (Neg indicates that induration (if any) was less than 10 mm^2) | two | 1 | 0 | 0 | – | positive responses | neither animal; also recorded: could not be generated | Percent of individuals with a humoral response to the vaccine peptides, Cancer controls n = 54 (serum antibodies [2]): 1.9%; Number of individuals with a humoral response to the vaccine peptides, Trial subjects n = 6 (serum antibodies [2]; listed as peptide 7): No patient demonstrated a response
H-PKLLIYKASSLESGVPSR-OH [HIV-L2, reference compound] | Neg (Neg indicates that induration (if any) was less than 10 mm^2) | Neg (Neg indicates that induration (if any) was less than 10 mm^2) | Neg (Neg indicates that induration (if any) was less than 10 mm^2) | Neg (Neg indicates that induration (if any) was less than 10 mm^2) | Neg (Neg indicates that induration (if any) was less than 10 mm^2) | Neg (Neg indicates that induration (if any) was less than 10 mm^2) | – | – | – | – | – | – | – | –
H-YFCSRVKAGGPDYWGQGT-OH [Peptide 6] | – | – | – | – | – | – | responses were observed in at least one individual for all of the peptides, except for peptides 3 and 6 | 0 | 0 | 0 | 50 | positive responses | obtained from both sheep | Number of individuals with a humoral response to the vaccine peptides, Trial subjects n = 6 (serum antibodies [2]; listed as peptide 6): No patient demonstrated a response
